This passage reports IC50 and inhibition results from US10519134B2, “Pyrazole compounds and methods of making and using same” (Lundbeck La Jolla Research Center, Inc., priority 2015, dated 2019).

One assay deals with T1, FAAH (Mus musculus, UniProt O08914).
T1 construct: Proteomes (mouse brain membrane fraction or cell lysates); from tissue; host or cells: mouse brain membrane fraction (or cell lysates)
T1 sequence (O08914 1-579): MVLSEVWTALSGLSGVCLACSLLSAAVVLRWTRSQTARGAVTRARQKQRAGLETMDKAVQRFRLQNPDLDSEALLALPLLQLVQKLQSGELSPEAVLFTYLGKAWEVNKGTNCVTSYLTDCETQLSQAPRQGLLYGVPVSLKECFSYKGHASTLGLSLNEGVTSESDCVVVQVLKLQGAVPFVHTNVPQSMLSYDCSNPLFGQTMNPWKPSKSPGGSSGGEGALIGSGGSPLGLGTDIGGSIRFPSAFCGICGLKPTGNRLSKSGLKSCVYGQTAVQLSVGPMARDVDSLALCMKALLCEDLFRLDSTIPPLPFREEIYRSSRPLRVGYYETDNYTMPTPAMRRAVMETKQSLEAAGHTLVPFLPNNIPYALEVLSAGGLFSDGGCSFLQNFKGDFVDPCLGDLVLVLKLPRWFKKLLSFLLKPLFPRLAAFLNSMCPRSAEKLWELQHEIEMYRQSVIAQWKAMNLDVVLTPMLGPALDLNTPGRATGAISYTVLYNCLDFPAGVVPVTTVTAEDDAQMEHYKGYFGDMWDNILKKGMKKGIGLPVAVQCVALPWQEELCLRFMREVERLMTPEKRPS
Briefly: In vitro competitive activity-based protein profiling (mouse), FAAH gel band. Type of assay: biochemical. The following applies: for IC50: mouse; for inhibition at 1 µM: read-out: FAAH % inh. 1 μM. Put shortly: (§1)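 Residual enzyme activity is taken from in-gel fluorescence after SDS-PAGE. Proteome from mouse brain membranes or cell lysates (total protein 1.0 mg/mL) sees inhibitor for 30 min, then FP-Rh or HT-01 probe (50 μM DMSO stock) for 30 min, both steps at 37 °C.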

In assay [1] the target is T2, MAGL (Mus musculus, UniProt O35678).
T2 construct: Proteomes (mouse brain membrane fraction or cell lysates); from tissue; host or cells: mouse brain membrane fraction (or cell lysates)
T2 sequence (O35678 1-303): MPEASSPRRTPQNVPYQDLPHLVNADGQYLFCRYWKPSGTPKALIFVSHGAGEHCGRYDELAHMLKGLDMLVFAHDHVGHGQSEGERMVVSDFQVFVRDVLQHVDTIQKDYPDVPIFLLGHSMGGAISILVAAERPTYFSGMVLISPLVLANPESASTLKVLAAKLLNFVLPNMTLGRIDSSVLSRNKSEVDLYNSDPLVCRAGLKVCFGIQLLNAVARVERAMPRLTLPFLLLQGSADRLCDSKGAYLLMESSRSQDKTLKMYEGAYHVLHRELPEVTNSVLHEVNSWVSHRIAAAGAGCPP
As to the kind of experiment: In vitro competitive activity-based protein profiling (mouse), MAGL gel band. The following applies: for IC50: mouse; for inhibition at 1 µM: read-out: MAGL % inh. 1 μM. Type of assay: biochemical. Put shortly:
as §1

The target in assay [2] is T2, MAGL. Briefly: Mouse brain proteomes from inhibitor treated mice (oral gavage, sacrificed 4 h after administration). The format is in vivo. Particulars: read-out: MAGL % inh. 5 mg/kg. As for the experimental part:
Compounds are tested to assess their MAGL and other serine hydrolase activity using the following in vitro and in vivo assays.
Preparation of Mouse Brain Proteomes from Inhibitor Treated Mice.
Inhibitors were administered to wild-type C57Bl/6J by oral gavage in a vehicle of polyethylene glycol. Each animal was sacrificed 4 h following administration and brain proteomes were prepared and analyzed according to previously established methods (See Niphakis, M. J., et al. (2011) ACS Chem. Neurosci. and Long, J. Z., et al. Nat. Chem. Biol. 5:37-44)

`CC(=O)Nc1ccn(C(=O)N2CCN(Cc3ccc(C(F)(F)F)cc3N3CCCCC3)CC2)n1` [Example 39, N-(1-(4-(2-(piperidin-1-yl)-4-(trifluoromethyl)benzyl)piperazine-1-carbonyl)-1H-pyrazol-3-yl)acetamide]: on FAAH, the IC50 fell in the range of 1000 to 10000 nM and the inhibition at 1 µM lay within 0 to 25%. For the same compound, on MAGL [1], the IC50 is no more than 100 nM and the inhibition at 1 µM was no less than 75%. Besides, on MAGL [2], the inhibition at 5 mg/kg is no less than 75%.

For `CC(=O)Nc1ccn(C(=O)N2CCN(Cc3ccc(C(F)(F)F)cc3N3CC4CCC(C3)O4)CC2)n1` [Example 40, N-(1-(4-(2-(8-oxa-3-azabicyclo[3.2.1]octan-3-yl)-4-(trifluoromethyl)benzyl)piperazine-1-carbonyl)-1H-pyrazol-3-yl)acetamide], on FAAH, the IC50 was 1000 to 10000 nM and the inhibition at 1 µM is 0 to 25%. At MAGL [1], the IC50 was no more than 100 nM and the inhibition at 1 µM is no less than 75%. Further, the inhibition at 5 mg/kg at MAGL [2] lay within 25 to 50%.

As for `CC(=O)Nc1ccn(C(=O)N2CCN(Cc3ccc(C(F)(F)F)cc3N3CCN(S(C)(=O)=O)CC3)CC2)n1` [Example 41, N-(1-(4-(2-(4-(methylsulfonyl)piperazin-1-yl)-4-(trifluoromethyl)benzyl)piperazine-1-carbonyl)-1H-pyrazol-3-yl)acetamide], on FAAH, the IC50 was 1000 to 10000 nM and the inhibition at 1 µM was in the range of 0 to 25%. For the same compound, on MAGL [1], the IC50 was no more than 100 nM and the inhibition at 1 µM was no less than 75%. For the same compound, at MAGL [2], the inhibition at 5 mg/kg fell in the range of 0 to 25%.

For the compound `CC(=O)Nc1ccn(C(=O)N2CCN(Cc3ccc(C(F)(F)F)cc3N3CCN(C(C)=O)CC3)CC2)n1` [Example 42, N-(1-(4-(2-(4-acetylpiperazin-1-yl)-4-(trifluoromethyl)benzyl)piperazine-1-carbonyl)-1H-pyrazol-3-yl)acetamide], at FAAH, the IC50 lay in the range of 1000 to 10000 nM and the inhibition at 1 µM was 0 to 25%. Further, at MAGL [1], the IC50 was no more than 100 nM and the inhibition at 1 µM was no less than 75%. Also, the inhibition at 5 mg/kg on MAGL [2] was 0 to 25%.

With `CC(=O)Nc1ccn(C(=O)N2CCN(Cc3ccc(C(F)(F)F)cc3N3CCC4(CC3)CCN(S(C)(=O)=O)C4)CC2)n1` [Example 43, N-(1-(4-(2-(2-(methylsulfonyl)-2,8-diazaspiro[4.5]decan-8-yl)-4-(trifluoromethyl)benzyl)piperazine-1-carbonyl)-1H-pyrazol-3-yl)acetamide], the IC50 on FAAH was 1000 to 10000 nM; at MAGL [1], no more than 100 nM. Also, the inhibition at 1 µM on FAAH was 0 to 25%; at MAGL [1], no less than 75%. The inhibition at 5 mg/kg at MAGL [2] was 0 to 25%.

Turning to `CC(=O)Nc1ccn(C(=O)N2CCN(Cc3ccc(C(F)(F)F)cc3N3CCC4(C3)CN(S(C)(=O)=O)C4)CC2)n1` [Example 44, N-(1-(4-(2-(2-(methylsulfonyl)-2,6-diazaspiro[3.4]octan-6-yl)-4-(trifluoromethyl)benzyl)piperazine-1-carbonyl)-1H-pyrazol-3-yl)acetamide], the IC50 was 1000 to 10000 nM at FAAH and no more than 100 nM at MAGL [1]. Besides, the inhibition at 1 µM on FAAH was 0 to 25%; at MAGL [1], no less than 75%. At MAGL [2], the inhibition at 5 mg/kg was in the range of 0 to 25%.

For the compound `CC(=O)Nc1ccn(C(=O)N2CCN(Cc3ccc(C(F)(F)F)cc3N3CCN(C4CC4)CC3)CC2)n1` [Example 47, N-(1-(4-(2-(4-cyclopropylpiperazin-1-yl)-4-(trifluoromethyl)benzyl)piperazine-1-carbonyl)-1H-pyrazol-3-yl)acetamide], the IC50 was 1000 to 10000 nM on FAAH and no more than 100 nM on MAGL [1]. In addition, the results for the inhibition at 1 µM on FAAH and on MAGL [1] were 0 to 25% and no less than 75%, respectively. Also, at MAGL [2], the inhibition at 5 mg/kg lay within 25 to 50%.

As for `CCN1CCN(c2cc(C(F)(F)F)ccc2CN2CCN(C(=O)n3ccc(NC(C)=O)n3)CC2)CC1` [Example 48, N-(1-(4-(2-(4-ethylpiperazin-1-yl)-4-(trifluoromethyl)benzyl)piperazine-1-carbonyl)-1H-pyrazol-3-yl)acetamide], on FAAH, the IC50 is 1000 to 10000 nM and the inhibition at 1 µM is 0 to 25%. On MAGL [1], the IC50 is no more than 100 nM and the inhibition at 1 µM is no less than 75%. The inhibition at 5 mg/kg at MAGL [2] is 0 to 25%.

On to `CC(=O)Nc1ccn(C(=O)N2CCN(Cc3ccc(C(F)(F)F)cc3N3CC4COCC4C3)CC2)n1` (centres unmarked) [Example 49, N-(1-(4-(2-(dihydro-1H-furo[3,4-c]pyrrol-5(3H,6H,6aH)-yl)-4-(trifluoromethyl)benzyl)piperazine-1-carbonyl)-1H-pyrazol-3-yl)acetamide], for which, at FAAH, the IC50 was 1000 to 10000 nM and the inhibition at 1 µM lay in the range of 0 to 25%. On MAGL [1], the IC50 is no more than 100 nM and the inhibition at 1 µM was no less than 75%. Further, the inhibition at 5 mg/kg at MAGL [2] was 0 to 25%.

Regarding `CC(=O)Nc1ccn(C(=O)N2CCN(Cc3ccc(Cl)cc3N3CCCCC3)CC2)n1` [Example 50, N-(1-(4-(4-chloro-2-(piperidin-1-yl)benzyl)piperazine-1-carbonyl)-1H-pyrazol-3-yl)acetamide], at FAAH, the IC50 was 1000 to 10000 nM and the inhibition at 1 µM fell in the range of 0 to 25%. In addition, on MAGL [1], the IC50 is no more than 100 nM and the inhibition at 1 µM is no less than 75%. On MAGL [2], the inhibition at 5 mg/kg was no less than 75%.

In the case of `CC(=O)Nc1ccn(C(=O)N2CCN(Cc3ccc(Cl)cc3N3CC4CCC(C3)O4)CC2)n1` [Example 51, N-(1-(4-(2-(8-oxa-3-azabicyclo[3.2.1]octan-3-yl)-4-chlorobenzyl)piperazine-1-carbonyl)-1H-pyrazol-3-yl)acetamide], the IC50 on FAAH is 1000 to 10000 nM; at MAGL [1] it was no more than 100 nM. In addition, the inhibition at 1 µM is 0 to 25% on FAAH and no less than 75% on MAGL [1]. In addition, on MAGL [2], the inhibition at 5 mg/kg lay in the range of 25 to 50%.

As for `CC(=O)Nc1ccn(C(=O)N2CCN(Cc3ccc(Cl)cc3N3CCN(C(C)=O)CC3)CC2)n1` [Example 53, N-(1-(4-(2-(4-acetylpiperazin-1-yl)-4-chlorobenzyl)piperazine-1-carbonyl)-1H-pyrazol-3-yl)acetamide], at FAAH, the IC50 was in the range of 1000 to 10000 nM and the inhibition at 1 µM is 0 to 25%. Besides, at MAGL [1], the IC50 was no more than 100 nM and the inhibition at 1 µM is no less than 75%. In addition, on MAGL [2], the inhibition at 5 mg/kg lay within 0 to 25%.

Turning to `CC(=O)Nc1ccn(C(=O)N2CCN(Cc3ccc(Cl)cc3N3CCC4(CC3)CCN(S(C)(=O)=O)C4)CC2)n1` [Example 54, N-(1-(4-(4-chloro-2-(2-(methylsulfonyl)-2,8-diazaspiro[4.5]decan-8-yl)benzyl)piperazine-1-carbonyl)-1H-pyrazol-3-yl)acetamide], at FAAH, the half-maximal inhibitory concentration (IC50) is 1000 to 10000 nM and the inhibition at 1 µM fell in the range of 0 to 25%. In addition, at MAGL [1], the IC50 was no more than 100 nM and the inhibition at 1 µM is no less than 75%. In addition, the inhibition at 5 mg/kg at MAGL [2] lay within 0 to 25%.

Turning to `CC(=O)Nc1ccn(C(=O)N2CCN(Cc3ccc(Cl)cc3N3CCC4(C3)CN(S(C)(=O)=O)C4)CC2)n1` [Example 55, N-(1-(4-(4-chloro-2-(2-(methylsulfonyl)-2,6-diazaspiro[3.4]octan-6-yl)benzyl)piperazine-1-carbonyl)-1H-pyrazol-3-yl)acetamide], the IC50 was 1000 to 10000 nM on FAAH and no more than 100 nM at MAGL [1]. In addition, the inhibition at 1 µM was 0 to 25% at FAAH and no less than 75% at MAGL [1]. Further, the inhibition at 5 mg/kg on MAGL [2] lay within 0 to 25%.

Regarding `CC(=O)Nc1ccn(C(=O)N2CCN(Cc3ccc(Cl)cc3N3CCC4(CCOCC4)C3)CC2)n1` [Example 56, N-(1-(4-(4-chloro-2-(8-oxa-2-azaspiro[4.5]decan-2-yl)benzyl)piperazine-1-carbonyl)-1H-pyrazol-3-yl)acetamide], at FAAH, the IC50 lay in the range of 1000 to 10000 nM and the inhibition at 1 µM is 0 to 25%. In addition, at MAGL [1], the IC50 is no more than 100 nM and the inhibition at 1 µM was no less than 75%. For the same compound, the inhibition at 5 mg/kg at MAGL [2] was in the range of 25 to 50%.

Take `CC(=O)Nc1ccn(C(=O)N2CCN(Cc3ccc(Cl)cc3N3CCN(C4CC4)CC3)CC2)n1` [Example 58, N-(1-(4-(4-chloro-2-(4-cyclopropylpiperazin-1-yl)benzyl)piperazine-1-carbonyl)-1H-pyrazol-3-yl)acetamide]: the IC50 on FAAH is 1000 to 10000 nM; at MAGL [1], no more than 100 nM. Further, the inhibition at 1 µM on FAAH is 0 to 25%; on MAGL [1] it was no less than 75%. Also, the inhibition at 5 mg/kg on MAGL [2] was no less than 75%.

As usually defined, the IC50 is the concentration at which inhibition is half-maximal. High values mean weaker potency, low ones greater potency.
